Series [1] has as its system human red blood cells (hRBCs). The note with it: highest concentration tested 250 μg/ml, ref Klubthawee et al., 2020; cited from earlier work. From the text:
Recently, a 12-mer α-helical, cationic AMP (‘P7’) was designed based on the cathelicidin family using a template-modified strategy, and subsequently modified by truncation and amino acid substitution ([Klubthawee et al., 2020]). […] Furthermore, P7 sho ...

In series [2] the test system is S. enterica serovar 4,5,12:i:- H1-027 (clinical isolate). The series is described as follows: MIC/MBC, broth microdilution and colony count. Type of series: cell-based, Salmonella enterica serovar 4,5,12:i:-. The note with it: H1-027, stool, resistant Amp, T, broth microdilution, 37°C, 24 h. The procedure: (§1) Salmonella enterica serovar Typhimurium ATCC 13311, 24 drug-resistant foodborne and eleven drug-resistant human borne S. enterica serovar Typhimurium and 4,5,12:i:- isolates (Table 1) were used as test microorganisms. They were previously isolated for molecular characterization in 2014 and kindly provided by Dr. Soraya Chaturongakul (Mahidol University, Thailand) ([Huoy et al., 2014]). All bacteria were cultured in Tryptic Soy Broth (TSB) and incubated at 37°C for 18 h. Mueller Hinton Broth (MHB) was then used to wash and rinse the bacteria. The bacterial suspensions were then diluted to obtain concentrations of 10^7 CFU/ml for inoculations.
(§2) A modified version of the National Committee for Clinical Laboratory Standards (NCCLS) broth microdilution method ([Steinberg et al., 1997]) was used to determine the minimum inhibitory concentrations (MICs) of peptide and compared to that of nisin. Fifty microliters of two-fold serial dilutions of each peptide [0.98–250 μg/ml in 0.01% (v/v) acetic acid and 0.2% (w/v) bovine serum albumin (BSA, Sigma-Aldrich, MO, United States)], were incubated with 50 μl of bacterial suspensions (approximately 10^7 CFU/ml) at 37°C for 24 h in a shaking incubator. MICs were taken as the lowest concentration of peptide at which growth was inhibited as observed by visual inspection. Bacterial cultures without peptides and uncultured broth were used as positive and negative controls, respectively. Minimal bactericidal concentrations (MBCs) were determined using a colony count assay ([Clinical Laboratory Standards Institute [CLSI], 2015]). Fifty microliters of samples from each non-turbid well in the MIC determination experiment was plated on Mueller Hinton Agar (MHA) and colonies were observed after overnight incubation at 37°C. MBCs were designated as the least concentration showing no colony growth on the plate. All of experiments were performed in triplicate.
A general note: Broth dilution looks for growth in wells or tubes with falling amounts of substance.

Series [3] deals with S. enterica serovar 4,5,12:i:- H2-055 (foodborne isolate). The experiment in a line: MIC/MBC, broth microdilution and colony count. The class given is cell-based, Salmonella enterica serovar 4,5,12:i:-. The note with it: H2-055, pork liver, resistant Amp, T, broth microdilution, 37°C, 24 h. The procedure: as §1, §2
Series [4] concerns S. enterica serovar 4,5,12:i:- H2-062 (foodborne isolate). The series is described as follows: MIC/MBC, broth microdilution and colony count. The class given is cell-based, Salmonella enterica serovar 4,5,12:i:-. The following applies: H2-062, pork intestine, resistant Amp, T, intermediate Cp, broth microdilution, 37°C, 24 h. The procedure:
as §1, §2

For series [5], the system named is S. enterica serovar 4,5,12:i:- H2-065 (foodborne isolate). The experiment in a line: MIC/MBC, broth microdilution and colony count. Type of series: cell-based, Salmonella enterica serovar 4,5,12:i:-. The following applies: H2-065, pork liver, resistant Amp, T, broth microdilution, 37°C, 24 h. The protocol:
as §1, §2

The test system of series [6] is S. enterica serovar 4,5,12:i:- H2-082 (foodborne isolate). The experiment in a line: MIC/MBC, broth microdilution and colony count. The class given is cell-based, Salmonella enterica serovar 4,5,12:i:-. The following applies: H2-082, pork intestine, resistant Amp, T, broth microdilution, 37°C, 24 h. The procedure:
as §1, §2

In series [7] the test system is S. enterica serovar 4,5,12:i:- H2-090 (foodborne isolate). The series is described as follows: MIC/MBC, broth microdilution and colony count. The class given is cell-based, Salmonella enterica serovar 4,5,12:i:-. The following applies: H2-090, pork intestine, resistant Amp, T, broth microdilution, 37°C, 24 h. The procedure:
as §1, §2

Series [8] has as its system S. enterica serovar Typhimurium H1-001 (clinical isolate). The experiment in a line: MIC/MBC, broth microdilution and colony count. The following applies: H1-001, blood, resistant Amp, Ctx, C, Cp, NA, T, intermediate Amc, broth microdilution, 37°C, 24 h. Type of series: cell-based, Salmonella enterica serovar Typhimurium. The protocol: as §1, §2
Series [9] has as its system S. enterica serovar Typhimurium H1-006 (clinical isolate). The series is described as follows: MIC/MBC, broth microdilution and colony count. The class given is cell-based, Salmonella enterica serovar Typhimurium. The note with it: H1-006, blood; resistant NA; intermediate S, Cp; broth microdilution, 37°C, 24 h. The procedure: as §1, §2
Series [10] relates to S. enterica serovar Typhimurium H1-015 (clinical isolate). The experiment in a line: MIC/MBC, broth microdilution and colony count. The following applies: H1-015, boot swab, resistant Amp, intermediate Cp, broth microdilution, 37°C, 24 h. Type of series: cell-based, Salmonella enterica serovar Typhimurium. The procedure:
as §1, §2

The subject of series [11] is S. enterica serovar Typhimurium H1-041 (clinical isolate). The experiment in a line: MIC/MBC, broth microdilution and colony count. Type of series: cell-based, Salmonella enterica serovar Typhimurium. The following applies: H1-041, stool, resistant Amp, Ctx, C, T, SxT, intermediate Amc, Cp, NA, broth microdilution, 37°C, 24 h. The procedure:
as §1, §2

For series [12], the system named is S. enterica serovar Typhimurium H1-062 (clinical isolate). The experiment in a line: MIC/MBC, broth microdilution and colony count. Type of series: cell-based, Salmonella enterica serovar Typhimurium. The note with it: H1-062, stool, resistant Amc, Amp, Ctx, C, NA, T, intermediate Cp, broth microdilution, 37°C, 24 h. The procedure:
as §1, §2

Ends that are not written are not given here.

With KIAKRIWKILRR-NH2 [P7], the Hemolysis result in series [1] is “less than 5%”.

As usually defined, the MIC is the smallest concentration in the dilution series that meets the test's criterion for growth inhibition. A higher MIC goes with a less susceptible organism. For the substance “Nisin: authorized food preservative peptide, binds lipid II and forms membrane pores (ITSISLCTPGCKTGALMGCNMKTATCHCSIHVSK; cysteine pairing not given here; also: lantibiotic nisin-A; UniProt P13068 24-57, looked up)”, the MIC in series [2], in series [3], in series [4], in [5], in [6] and in series [7] was greater than 1000 µg/mL each time. The MIC in series [8], in series [9], in series [10], in series [11] and in series [12] was greater than 1000 µg/mL each time.
